# According to patent US20080139673A1, “POTENTIATION OF ANTIFUNGAL COMPOUNDS” (MethylGene Inc., priority 2006, published 2008):
# Read-outs that look alike come from different tables or passages of the source.
# Key:
# ScHOS2 deletion mutant = test: Serial dilution sensitivity of yeast deletion strain to antifungal agents; format: cell-based, S. cerevisiae; conditions: FIGS. 4-12
# Source text: (§1) Standard serial dilution techniques were used to determine sensitivity of yeast deletion strains to various antifungal agents.
# recombinant Hos2p.V5His6 = target: T1, recombinant Hos2p.V5His6 (Saccharomyces cerevisiae, UniProt P53096); test: HDAC assay with purified recombinant Hos2p.V5His6 fractions; format: biochemical, S. cerevisiae; conditions: for IC50: read-out: IC50 (ug/ml)
# T1 construct: YGL194C/HOS2 from S. cerevisiae (residues 1-452 upstream the stop codon); made in house; host or cells: S. cerevisiae BY4742 or isogenic Δhos2 strain carrying pYES2.1.HOS2.V5His6 #7, galactose-induced
# T1 sequence (P53096 whole entry, the tested form may be a part): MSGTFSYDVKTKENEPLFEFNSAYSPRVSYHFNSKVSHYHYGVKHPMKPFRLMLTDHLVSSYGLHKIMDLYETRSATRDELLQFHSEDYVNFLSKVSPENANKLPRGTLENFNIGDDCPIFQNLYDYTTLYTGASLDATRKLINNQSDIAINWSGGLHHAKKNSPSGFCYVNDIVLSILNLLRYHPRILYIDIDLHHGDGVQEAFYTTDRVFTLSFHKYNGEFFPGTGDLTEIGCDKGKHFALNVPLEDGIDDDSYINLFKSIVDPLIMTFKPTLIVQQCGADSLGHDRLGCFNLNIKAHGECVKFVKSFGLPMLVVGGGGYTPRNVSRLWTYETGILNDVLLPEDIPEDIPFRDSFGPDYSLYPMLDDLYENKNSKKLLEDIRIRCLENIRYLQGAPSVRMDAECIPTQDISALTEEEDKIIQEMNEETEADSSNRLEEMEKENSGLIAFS
# Protocol: The induction of Hos2p.V5His6 expression by galactose was performed using either glucose or raffinose as the carbon source (pYES2.1 TOPO TA Expression Kit Manual, Invitrogen, cat. # K4150-01), Cell lysates were prepared from spheroplasts that had been generated from strains BY4742/pYES2.1.HOS2.V5His6 # 7 and Δhos2/pYES2.1.HOS2.V5His6 #7 grown in the presence or in the absence of galactose. Spheroplasts were prepared from cells that were grown in YEPD (BY4742, Δhos2), SC-URA+2% glucose or raffinose or SC-URA+1% glucose or raffinose+1% galactose (BY4742/pYES2.1.HOS2.V5His6 # 7 and Δhos2/pYES2.1.HOS2.V5His6 #7) by the lyticase method of Franzusoff et al. (1991). The collection of fractions containing or not Hos2pV5His6 was performed by IMAC using the H is GraviTrap Affinity Columns (GE Healthcare cat. # 11-033-99). Binding buffer was as recommended by the manufacturer, whereas three different elution buffers were used sequentially: 20 mM sodium phosphate+500 mM NaCl+100 mM, 250 mM or 500 mM imidazole, pH 7.4. Fractions were further desalted using PD-10 (GE Healthcare, cat. # 17-0851-01) and NAP-5 (GE Healthcare, cat. # 17-0853-02) desalting columns. Fractions that were eluted with the three different buffers containing 100, 250 or 500 mM imidazole, pH 7.4 and desalted were assayed for HDAC activity (see below). Only the corresponding fractions containing significant intrinsic HDAC activity (20 mM sodium phosphate+500 mM NaCl+250 mM imidazole) were kept for further studies.
# Fractions containing the recombinant Hos2p.V5His6 were incubated for 2 h with or without HDAC inhibitor (0-20 μg/ml). The HDAC activity that was specifically associated with the recombinant Hos2p.V5His6 expressed following galactose induction was determined assuming that
# FluoHos2p.V5His6 specific=Fluo+galactose−Fluo−galactose
# where Fluo+galactose=HDAC activity associated with all HDACs copurified along with Hos2p.V5His6 Fluo+glucose=HDAC activity associated with all HDACs copurified in the absence of Hos2p.V5His6
# [1] = tested on: WT/ScHOS2 and Δhos2/ScHOS2; test: MIC80 testing (CLSI M27-A2), complementation of Δhos2 by recombinant ScHos2p; format: cell-based, S. cerevisiae; conditions: 72 hours, 30° C., FIG. 14
# Protocol: Minimum inhibitory concentration (MIC) testing was performed according to CLSI M27-A2 method for yeast testing using CSM-URA medium (Complete Synthetic Medium minus Uracile) containing either 2% raffinose or 1% raffinose+1% galactose as the carbon source. Itraconazole concentrations ranged from […]. Log-phase cells grown in CSM-URA+2% raffinose or CSM-URA+1% raffinose+1% galactose were inoculated at 5×10^3 cells/ml. The MIC80 of itraconazole was determined after 72 hours growth at 30° C.
# HosB = conditions: cited from earlier work
# A. nidulans Hda1 enzyme = conditions: cited from earlier work
# Candida glabrata = conditions: cited from earlier work
# C. albicans = conditions: cited from earlier work
# ScRPD3 deletion mutant = test: Serial dilution sensitivity of yeast deletion strain to antifungal agents; format: cell-based, S. cerevisiae; conditions: FIG. 3
# Source text: as §1
smiles,measurement,setting,value
CC(Cc1ccc(C(C)(C)C)cc1)CN1C[C@@H](C)O[C@@H](C)C1 (stereo partly drawn) [fenpropimorph],hypersensitivity of ScHOS2 deletion mutant to antifungal agent,ScHOS2 deletion mutant,hypersensitive
O=C(Cc1ccc(CCCCc2ccccc2)cc1)NO [Compound 4],IC50,recombinant Hos2p.V5His6; Hos2 from S. cerevisiae BY4742/HOS2.V5His6 grown in glucose (GAL1 repressed) or galactose (induced),~14.1 µM
same,IC50,recombinant Hos2p.V5His6; Hos2 from S. cerevisiae BY4742/HOS2.V5His6 grown in raffinose (GAL1 repressed) or galactose (induced),~10.6 µM
same,inhibition at 5 µg/mL,"recombinant Hos2p.V5His6; read-out: % inhibition at 5 μg/ml, Hos2 from S. cerevisiae BY4742/HOS2.V5His6 grown in glucose (GAL1 repressed) or galactose (induced), 5 μg/ml, 2 h",60.7%
same,inhibition at 5 µg/mL,"recombinant Hos2p.V5His6; read-out: % inhibition at 5 μg/ml, Hos2 from S. cerevisiae BY4742/HOS2.V5His6 grown in raffinose (GAL1 repressed) or galactose (induced), 5 μg/ml, 2 h",61.2%
same,inhibition at 5 µg/mL,"recombinant Hos2p.V5His6; read-out: % inhibition at 5 μg/ml, Hos2 from S. cerevisiae Δhos2/HOS2.V5His6 grown in glucose (GAL1 repressed) or galactose (induced), 5 μg/ml, 2 h",55.2%
same,IC50,recombinant Hos2p.V5His6; Hos2 from S. cerevisiae Δhos2/HOS2.V5His6 grown in glucose (GAL1 repressed) or galactose (induced),~15.9 µM
same,inhibition at 5 µg/mL,"recombinant Hos2p.V5His6; read-out: inhibition of purified Hos2 protein, 5 ug/ml, summary of Table 1",> 60%
CCC(C)n1ncn(-c2ccc(N3CCN(c4ccc(OCC5COC(Cn6cncn6)(c6ccc(Cl)cc6Cl)O5)cc4)CC3)cc2)c1=O (stereo not drawn) [itraconazole],difference in sensitivity (MIC80) between WT/ScHOS2 and Δhos2/ScHOS2,[1]; expression of Hos2 induced by galactose,2 fold
same,difference in sensitivity (MIC80) between WT/ScHOS2 and Δhos2/ScHOS2,[1]; grown in the presence of raffinose,4 fold
"CC(/C=C/C(=O)NO)=C\[C@@H](C)C(=O)c1ccc(N(C)C)cc1 [TSA, trichostatin A]",sensitivity of the enzyme to the HDAC inhibitor,HosB,highly resistant
same,sensitivity of the enzyme to the HDAC inhibitor,A. nidulans Hda1 enzyme,highly sensitive
same,ability to enhance the sensitivity to azole antifungal agents,Candida glabrata,not found to enhance the sensitivity
same,ability to enhance the sensitivity to azole antifungal agents,C. albicans,able to enhance the sensitivity
Nc1nc(=O)[nH]cc1F [5-fluorocytosine],hypersensitivity of ScHOS2 deletion mutant to antifungal agent,ScHOS2 deletion mutant,not hypersensitive
OC(Cn1cncn1)(Cn1cncn1)c1ccc(F)cc1F [fluconazole],hypersensitivity of ScHOS2 deletion mutant to antifungal agent,ScHOS2 deletion mutant,hypersensitive
same,hypersensitivity of ScRPD3 deletion mutant to antifungal agent,ScRPD3 deletion mutant,not hypersensitive
CN(C/C=C/C#CC(C)(C)C)Cc1cccc2ccccc12 [terbinazine],hypersensitivity of ScHOS2 deletion mutant to antifungal agent,ScHOS2 deletion mutant,not hypersensitive
C[C@@H](c1ncncc1F)[C@](O)(Cn1cncn1)c1ccc(F)cc1F [voriconazole],hypersensitivity of ScHOS2 deletion mutant to antifungal agent,ScHOS2 deletion mutant,hypersensitive
C[C@@H]1[C@H](O)[C@@H](C)/C=C/C=C/C=C/C=C/C=C/C=C/C=C/[C@H](O[C@@H]2O[C@H](C)[C@@H](O)[C@H](N)[C@@H]2O)C[C@@H]2O[C@](O)(C[C@@H](O)C[C@@H](O)[C@H](O)CC[C@@H](O)C[C@@H](O)CC(=O)O[C@H]1C)C[C@H](O)[C@H]2C(=O)O [Amphotericin B],hypersensitivity of ScHOS2 deletion mutant to antifungal agent,ScHOS2 deletion mutant,not hypersensitive
C[C@@H]1NC(=O)[C@H]2CCCN2C(=O)[C@H](CCCCCC(=O)[C@@H]2CO2)NC(=O)[C@@H](C)NC1=O [HC toxin],sensitivity of the enzyme to the HDAC inhibitor,HosB,highly resistant
CC(=O)N1CCN(c2ccc(OCC3COC(Cn4ccnc4)(c4ccc(Cl)cc4Cl)O3)cc2)CC1 (stereo not drawn) [ketoconazole],hypersensitivity of ScHOS2 deletion mutant to antifungal agent,ScHOS2 deletion mutant,hypersensitive
same,hypersensitivity of ScRPD3 deletion mutant to antifungal agent,ScRPD3 deletion mutant,not hypersensitive
C[C@@H]([C@H](N)C(=O)N[C@H](C(=O)O)[C@H]1O[C@@H](n2ccc(=O)[nH]c2=O)[C@H](O)[C@@H]1O)[C@H](O)c1ccc(O)cn1 [nikkomycin],hypersensitivity of ScHOS2 deletion mutant to antifungal agent,ScHOS2 deletion mutant,not hypersensitive
